Test results reported in ChEMBL document CHEMBL2321853, “Novel acylethanolamide derivatives that modulate body weight through enhancement of hypothalamic pro-opiomelanocortin (POMC) and/or decreased neuropeptide Y (NPY)” (J Med Chem, 2013).
The source made the active and inactive calls. No cut-off for these calls is given here.

Assays:
[1] = molecular target: Transient receptor potential cation channel subfamily V member 1 (Mus musculus) (UniProt Q704Y3); test: Displacement of [3H]resiniferatoxin from TRPV1 in mouse cortical slices
Chain of Transient receptor potential cation channel subfamily V member 1 (Mus musculus) (Q704Y3 whole entry): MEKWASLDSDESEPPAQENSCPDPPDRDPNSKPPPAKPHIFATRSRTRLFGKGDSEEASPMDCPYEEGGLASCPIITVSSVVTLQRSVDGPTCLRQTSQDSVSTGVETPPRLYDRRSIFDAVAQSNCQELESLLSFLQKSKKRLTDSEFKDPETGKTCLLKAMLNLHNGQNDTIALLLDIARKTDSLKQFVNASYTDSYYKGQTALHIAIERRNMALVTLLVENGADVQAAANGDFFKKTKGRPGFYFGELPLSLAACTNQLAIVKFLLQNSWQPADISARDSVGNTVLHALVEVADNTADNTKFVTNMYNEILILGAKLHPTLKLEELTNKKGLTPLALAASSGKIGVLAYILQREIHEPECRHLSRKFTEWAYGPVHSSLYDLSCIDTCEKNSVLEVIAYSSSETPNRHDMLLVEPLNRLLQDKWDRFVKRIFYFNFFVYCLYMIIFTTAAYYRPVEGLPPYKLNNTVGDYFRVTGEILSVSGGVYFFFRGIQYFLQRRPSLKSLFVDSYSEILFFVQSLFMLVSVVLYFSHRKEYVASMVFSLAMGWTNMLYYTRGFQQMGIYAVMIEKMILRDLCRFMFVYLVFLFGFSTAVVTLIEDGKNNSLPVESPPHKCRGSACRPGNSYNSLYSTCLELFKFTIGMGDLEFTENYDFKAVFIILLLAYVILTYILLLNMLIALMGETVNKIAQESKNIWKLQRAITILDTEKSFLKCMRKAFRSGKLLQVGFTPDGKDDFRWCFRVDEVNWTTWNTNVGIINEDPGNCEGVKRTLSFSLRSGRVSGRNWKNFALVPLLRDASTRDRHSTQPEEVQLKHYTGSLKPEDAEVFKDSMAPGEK

Mus musculus [2] = test: Antiobesity activity in Sabra mouse assessed as reduction in body weight at 1 mg/kg, ip administered on day 0, 10, 11, 12, 24, 29 measured on day 24 relative to control; type: functional; design: scale not given: the % may be the effect or the level left; settings: route intraperitoneal
Mus musculus [3] = test: Antiobesity activity in Sabra mouse assessed as reduction in body weight at 1 mg/kg, ip administered on day 0, 10, 11, 12, 24, 29 measured on day 26 relative to control; type: functional; design: scale not given: the % may be the effect or the level left; settings: route intraperitoneal
Mus musculus [4] = test: Antiobesity activity in Sabra mouse assessed as reduction in body weight at 1 mg/kg, ip administered on day 0, 10, 11, 12, 24, 29 measured on day 39 relative to control; type: functional; design: scale not given: the % may be the effect or the level left; settings: route intraperitoneal
Mus musculus [5] = test: Antiobesity activity in Sabra mouse assessed as reduction in body weight at 1 mg/kg, ip administered on day 0, 10, 11, 12, 24, 29 measured on day 19 relative to control; type: functional; design: scale not given: the % may be the effect or the level left; settings: route intraperitoneal
Mus musculus [6] = test: Antiobesity activity in Sabra mouse assessed as reduction in body weight at 1 mg/kg, ip administered on day 0, 10, 11, 12, 24, 29 measured on day 33 relative to control; type: functional; design: scale not given: the % may be the effect or the level left; settings: route intraperitoneal
Mus musculus [7] = test: Antiobesity activity in Sabra mouse assessed as reduction in body weight at 1 mg/kg, ip administered on day 0, 10, 11, 12, 24, 29 measured on day 12 relative to control; type: functional; design: scale not given: the % may be the effect or the level left; settings: route intraperitoneal
Mus musculus [8] = test: Antiobesity activity in Sabra mouse assessed as reduction in body weight at 1 mg/kg, ip administered on day 0, 10, 11, 12, 24, 29 measured on day 22 relative to control; type: functional; design: scale not given: the % may be the effect or the level left; settings: route intraperitoneal
Mus musculus [9] = test: Antiobesity activity in Sabra mouse assessed as reduction in body weight at 1 mg/kg, ip administered on day 0, 10, 11, 12, 24, 29 measured on day 36 relative to control; type: functional; design: scale not given: the % may be the effect or the level left; settings: route intraperitoneal
Mus musculus [10] = test: Antiobesity activity in Sabra mouse assessed as reduction in body weight at 1 mg/kg, ip administered on day 0, 10, 11, 12, 24, 29 measured on day 29 relative to control; type: functional; design: scale not given: the % may be the effect or the level left; settings: route intraperitoneal
[11] = molecular target: Transient receptor potential cation channel subfamily V member 1 (Homo sapiens, UniProt Q8NER1); test: Agonist activity at TRPV1 receptor (unknown origin)
Chain of Transient receptor potential cation channel subfamily V member 1 (Q8NER1 whole entry): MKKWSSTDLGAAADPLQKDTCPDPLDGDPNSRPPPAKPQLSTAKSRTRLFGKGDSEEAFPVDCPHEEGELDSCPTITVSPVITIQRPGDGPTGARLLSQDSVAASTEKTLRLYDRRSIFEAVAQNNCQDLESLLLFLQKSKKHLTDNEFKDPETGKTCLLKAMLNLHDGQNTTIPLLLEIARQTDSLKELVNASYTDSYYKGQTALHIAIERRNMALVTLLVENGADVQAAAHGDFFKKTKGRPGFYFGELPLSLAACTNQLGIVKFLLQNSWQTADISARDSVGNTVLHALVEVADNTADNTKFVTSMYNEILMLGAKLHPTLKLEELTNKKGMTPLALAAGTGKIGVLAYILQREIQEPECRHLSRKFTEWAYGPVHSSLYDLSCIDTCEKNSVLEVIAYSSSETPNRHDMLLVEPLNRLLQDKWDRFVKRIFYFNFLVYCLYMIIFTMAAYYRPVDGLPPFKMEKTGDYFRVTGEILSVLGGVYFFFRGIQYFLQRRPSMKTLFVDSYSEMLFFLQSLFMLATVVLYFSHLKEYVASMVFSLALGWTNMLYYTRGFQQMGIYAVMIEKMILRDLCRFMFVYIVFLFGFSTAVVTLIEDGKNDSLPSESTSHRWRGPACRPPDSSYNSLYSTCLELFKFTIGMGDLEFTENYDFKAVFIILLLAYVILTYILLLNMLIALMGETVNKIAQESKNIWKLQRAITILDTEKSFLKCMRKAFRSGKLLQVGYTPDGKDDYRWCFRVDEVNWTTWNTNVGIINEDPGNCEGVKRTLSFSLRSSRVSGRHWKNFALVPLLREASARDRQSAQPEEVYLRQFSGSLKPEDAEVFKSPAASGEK

[12] = molecular target: T1, Glucose-dependent insulinotropic receptor (Homo sapiens, UniProt Q8TDV5); test: Agonist activity at recombinant GPR119 receptor (unknown origin)
T1 sequence (Q8TDV5 whole entry): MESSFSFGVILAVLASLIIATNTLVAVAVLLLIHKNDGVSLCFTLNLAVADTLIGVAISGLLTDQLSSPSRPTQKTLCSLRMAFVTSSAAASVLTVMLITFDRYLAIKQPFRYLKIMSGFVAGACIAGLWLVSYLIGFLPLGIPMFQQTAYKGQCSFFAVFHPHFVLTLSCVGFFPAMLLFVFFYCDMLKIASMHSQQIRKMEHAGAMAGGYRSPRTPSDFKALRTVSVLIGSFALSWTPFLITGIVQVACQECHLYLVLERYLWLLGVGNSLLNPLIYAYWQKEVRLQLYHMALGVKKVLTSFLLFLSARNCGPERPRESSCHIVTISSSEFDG

SMILES	Activity [1]	Activity (Mus musculus [2])	Activity (Mus musculus [3])	Activity (Mus musculus [4])	Activity (Mus musculus [5])	Activity (Mus musculus [6])	Activity (Mus musculus [7])	Activity (Mus musculus [8])	Activity (Mus musculus [9])	Activity (Mus musculus [10])	EC50 [11]	EC50 [12]
CCCCCCCCCCCCCCCCCC(=O)NCCO	inactive											
CCCCCCCC/C=C\CCCCCCCC(=O)N(C)CCO		0.03%	-0.5%	-3.67%	-0.48%	-0.3%	-0.61%	-0.48%	-3.28%	-1.44%		
CCCCC/C=C\C/C=C\CCCCCCCC(=O)NCCO [LINOLEOYLETHANOLAMIDE]											630 nM	
CCCCCCCC/C=C\CCCCCCCC(=O)NCCO [OLEOYLETHANOLAMIDE]		-0.18%	1.43%	-3.42%	-1.17%	-0.15%	-0.23%	-1.17%	-2.57%	-0.2%	40 nM	3200 nM
